Reference: patent US10457686B2, “[1,2,3]triazolo[4,5-D]pyrimidine derivatives” (Hoffmann-La Roche Inc., priority 2016, dated 2019)
pKi: −log10 of the molar value.

Columns and labels:
human CB2 = human CB2 (Homo sapiens (Human), UniProt P34972); experiment: Radioligand binding assay, human CNR2 (CB2) receptor, [3H]-CP-55,940; settings: membrane preparations of HEK cells expressing human CNR2; 2.6 nM [3H]-CP-55,940
Experimental: (§1) Radioligand Binding Assay
(§2) The affinity of the compounds of the invention for cannabinoid receptors was determined using recommended amounts of membrane preparations (PerkinElmer) of human embryonic kidney (HEK) cells expressing the human CNR1 or CNR2 receptors in conjunction with 1.5 or 2.6 nM [3H]-CP-55,940 (Perkin Elmer) as radioligand, respectively. Binding was performed in binding buffer (50 mM Tris, 5 mM MgCl2, 2.5 mM EDTA, and 0.5% (wt/vol) fatty acid free BSA, pH 7.4 for CB1 receptor and 50 mM Tris, 5 mM MgCl2, 2.5 mM EGTA, and 0.1% (wt/vol) fatty acid free BSA, pH 7.4 for CB2 receptor) in a total volume of 0.2 mL for 1 h at 30° C. shaking. The reaction was terminated by rapid filtration through microfiltration plates coated with 0.5% polyethylenimine (UniFilter GF/B filter plate; Packard). Bound radioactivity was analyzed for Ki using nonlinear regression analysis (Activity Base, ID Business Solution, Limited), with the Kd values for [^3H]CP55,940 determined from saturation experiments.
The compounds according to formula (I) have an activity in the above assay (Ki) particularly of 0.5 nM to 10 μM, more particularly of 0.5 nM to 3 μM and most particularly of 0.5 nM to 100 nM.

human CB1 = human CB1 (Homo sapiens (Human), UniProt P21554); experiment: Radioligand binding assay, human CNR1 (CB1) receptor, [3H]-CP-55,940; settings: membrane preparations of HEK cells expressing human CNR1; 1.5 nM [3H]-CP-55,940
Experimental: as §1, §2

human CB2, sequence (P34972 whole entry): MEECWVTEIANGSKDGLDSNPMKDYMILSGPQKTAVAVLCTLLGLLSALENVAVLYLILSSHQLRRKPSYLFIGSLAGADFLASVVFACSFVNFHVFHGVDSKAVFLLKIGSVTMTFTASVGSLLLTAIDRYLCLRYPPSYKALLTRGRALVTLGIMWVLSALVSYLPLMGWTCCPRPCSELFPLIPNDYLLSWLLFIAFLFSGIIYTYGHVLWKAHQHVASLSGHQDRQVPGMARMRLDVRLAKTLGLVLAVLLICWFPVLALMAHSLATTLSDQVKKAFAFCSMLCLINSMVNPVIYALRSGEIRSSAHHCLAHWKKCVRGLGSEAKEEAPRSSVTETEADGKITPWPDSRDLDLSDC
human CB1, sequence (P21554 whole entry): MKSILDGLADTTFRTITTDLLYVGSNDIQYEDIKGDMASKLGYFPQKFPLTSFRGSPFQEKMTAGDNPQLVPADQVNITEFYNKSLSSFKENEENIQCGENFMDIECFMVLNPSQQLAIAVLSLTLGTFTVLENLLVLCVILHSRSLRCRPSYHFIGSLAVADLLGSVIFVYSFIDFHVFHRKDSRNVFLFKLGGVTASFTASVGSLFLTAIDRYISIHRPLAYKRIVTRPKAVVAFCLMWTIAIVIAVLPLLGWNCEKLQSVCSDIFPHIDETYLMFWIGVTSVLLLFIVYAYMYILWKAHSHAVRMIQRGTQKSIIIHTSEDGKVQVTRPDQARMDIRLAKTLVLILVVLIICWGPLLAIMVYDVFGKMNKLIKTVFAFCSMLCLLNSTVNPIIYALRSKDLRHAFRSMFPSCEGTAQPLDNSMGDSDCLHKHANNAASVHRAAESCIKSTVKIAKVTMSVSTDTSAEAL

Compound	pKi (human CB2)	pKi (human CB1)
C#CCCC1(CCNC(=O)c2nonc2Cn2nc3nc(C(C)(C)C)nc(N4CCC(F)(F)C4)c3n2)N=N1 [Example 2, 4-{[5-tert-Butyl-7-(3,3-difluoropyrrolidin-1-yl)-2H-[1,2,3]triazolo[4,5-d]pyrimidin-2-yl]methyl}-N-{2-[3-(but-3-yn-1-yl)-3H-diaziren-3-yl]ethyl}-1,2,5-oxadiazole-3-carboxamide]	6.03	< 5.00
C#CCCC1(CCNC(=O)c2nonc2Cn2nc3nc(C(C)(C)C)nc(N4CC[C@H](O)C4)c3n2)N=N1 [Example 3, 4-({5-tert-Butyl-7-[(3S)-3-hydroxypyrrolidin-1-yl]-2H-[1,2,3]triazolo[4,5-d]pyrimidin-2-yl}methyl)-N-{2-[3-(but-3-yn-1-yl)-3H-diaziren-3-yl]ethyl}-1,2,5-oxadiazole-3-carboxamide]	5.54	< 5.00
C#Cc1cccc(C2(C(F)(F)F)N=N2)c1Cn1nc2nc(C(F)(F)c3ccccc3)nc(N3CCC(F)(F)C3)c2n1 [Example 4, 5-[Difluoro(phenyl)methyl]-7-(3,3-difluoropyrrolidin-1-yl)-2-[[2-ethynyl-6-[3-(trifluoromethyl)diazirin-3-yl]phenyl]methyl]triazolo[4,5-d]pyrimidine]	5.97	< 5.00
C#Cc1cccc(C2(C(F)(F)F)N=N2)c1Cn1nc2nc(C(C)(C)C)nc(N3CCC(F)(F)C3)c2n1 [Example 5, 5-tert-Butyl-7-(3,3-difluoropyrrolidin-1-yl)-2-[[2-ethynyl-6-[3-(trifluoromethyl)diazirin-3-yl]phenyl]methyl]triazolo[4,5-d]pyrimidine]	7.09	6.23
C#Cc1cccc(C2(C(F)(F)F)N=N2)c1Cn1nc2nc(C(C)(C)C)nc(N3CC[C@H](O)C3)c2n1 [Example 6, (3S)-1-[5-tert-Butyl-2-[[2-ethynyl-6-[3-(trifluoromethyl)diazirin-3-yl]phenyl]methyl]triazolo[4,5-d]pyrimidin-7-yl]pyrrolidin-3-ol]	7.00	< 5.00
C#Cc1cccc(C2(C(F)(F)F)N=N2)c1Cn1nc2nc(C(F)(F)c3ccccc3)nc(N3CC[C@H](O)C3)c2n1 [Example 7, (3S)-1-[5-[Difluoro(phenyl)methyl]-2-[[2-ethynyl-6-[3-(trifluoromethyl)diazirin-3-yl]phenyl]methyl]triazolo[4,5-d]pyrimidin-7-yl]pyrrolidin-3-ol]	6.45	5.26
